Assay results from patent publication US7070892B2, “Imaging members” (Xerox Corporation, priority 2004, dated 2006).

Test: solubility of the electron transport component (CFM derivative) in organic solvents
Type: physicochemical

SMILES | solubility of the electron transport component (solvent is butylacetate) [grams/liter] | solubility of the electron transport component (solvent is tetrahydrofuran) [grams/liter]
CCCCC(CC)COC(=O)c1cccc2c1-c1ccccc1C2=C(C#N)C#N (stereo not shown) [R8 is 2-ethylhexyl, 9-dicyanomethylenefluorene-4-(2-ethylhexyl)carboxylate] | 25 | 205
CCCCOC(=O)c1cccc2c1-c1ccccc1C2=C(C#N)C#N [R8 is n-butyl, (4-n-butoxycarbonyl-9-fluorenylidene)malononitrile] | 8 | 105
